From patent US20250019370A1, “L-LYSINE SALT OF 4-CHLORO-5-[4-(2,6-DICHLOROPHENYL)SULFONYLPIPERAZIN-1-YL]-1-BENZOFURAN-2-CARBOXYLIC ACID AND VARIOUS FORMS THEREOF” (ENYO PHARMA, priority 2023, published 2025)

Experiments:
[1] = Stability of freeze-dried amorphous material under ambient conditions; type: physicochemical
Procedure: The amorphous material was also prepared by freeze drying of EYP001 L-lysine salt (form I). EYP001 L-lysine salt (form I) was dissolved in CH3CN/H2O (62:38 v:v) at a concentration of 20 mg/mL. Then the solution was freeze-dried to form amorphous EYP001 L-lysine salt. This amorphous material was found stable over at least 19 days under ambient conditions.

[2] = Solubility kinetics in pH 4.5 acetate buffer; type: physicochemical; conditions: 37 ° C., listed as EYP001 L-Lysine salt (Amorphous form)
Procedure: The solubility kinetics of the salt forms as well as the native EYP001 free acid form were determined in FaSSIF and FeSSIF media, and in a pH 4.5 acetate buffer as detailed below:
The samples were prepared by adding an excess of each tested bulk (salt or native EYP001) to a given volume of test medium. The suspension was stirred by orbital stirring over 1 hour (in both pH 4.5 acetate buffer and FeSSIF medium) or 24 hours (inFaSSIF medium) at 37° C., protected from light.
In pH 4.5 acetate buffer, the soluble concentration was assessed after 0.5 hour and 1 hour of stirring.
At each time point, the “supernatant” was isolated and diluted in a solvent mixture allowing its injection into the chromatographic system. The concentration in solution in the test medium was determined by HPLC with external standardization.

[3] = Solubility kinetics in FeSSIF medium; type: physicochemical; conditions: listed as EYP001 L-Lysine salt (Amorphous form); for Soluble fraction: 37 ° C.; for pH: pH printed with the soluble fraction
Procedure: The solubility kinetics of the salt forms as well as the native EYP001 free acid form were determined in FaSSIF and FeSSIF media, and in a pH 4.5 acetate buffer as detailed below: The samples were prepared by adding an excess of each tested bulk (salt or native EYP001) to a given volume of test medium. […] In FaSSIF medium, the soluble concentration was assessed after 24 hours of stirring. […] At each time point, the “supernatant” was isolated and diluted in a solvent mixture allowing its injection into the chromatographic system. The concentration in solution in the test medium was determined by HPLC with external standardization.

[4] = Thermogravimetric analysis (TGA), mass losses upon heating; type: physicochemical; conditions: listed as EYP001 L-lysine salt (amorphous form)
Procedure: Thermogravimetric analysis was performed on a TA Instruments TGA Hi-Res 2950 apparatus equipped with an evolved gas analysis furnace. A sample was placed in an opened aluminium basket and analysed according to the following conditions: […]

[5] = Dynamic Vapor Sorption (DVS) analysis (gas water sorption); type: physicochemical
Procedure: The dynamic vapor sorption (DVS) analysis (gas water sorption) was performed on a DVS-Intrinsic incubator (SMS Ltd), equipped with DVS-Intrinsic Control Software 1.0. The sample, placed in an aluminium basket holder, was submitted to a full-cycle analysis (sorption followed by desorption cycle) under the following conditions:
The sample was first pre-dried under a stream of dry air until a stabilized sample mass was observed. Then, the relative humidity was increased by 5% increments. At each step, the sample mass was allowed to increase until equilibrium is reached (according to a given dm/dt target), and then a new relative humidity rise occurred. Relative humidity was ramped up to 95%. After equilibration at this point, desorption began in a similar stepwise manner, with sample mass decrease again allowed to stabilize after each incremental humidity decrease.
With both segments of the above-described method, the sample mass recording allowed describing of the whole vapor water sorption/desorption behaviour versus relative humidity.

[6] = Pharmacokinetic study Experiment #4, oral administration in rats; type: in vivo, rat; conditions: 10 mg EqEYP001/Kg, male rats, listed as EYP001 L-lysine salt (Amorphous Form)
Procedure: In a fourth study (Experiment #4), EYP001, EYP001 L-lysine salt amorphous Form and EYP001 L-lysine salt Form VI in aqueous formulations (0.5% CMC, 0.25% Tween 80, water) were orally administrated at a dose of 10 mg EqEYP001/Kg in 8 male rats for each compound (4 rats on day 1 and 4 rats on day 2 for each compound). Blood samples were taken at 0.25 h, 0.5 h, 1 h, 2 h, 4 h, 6 h, 8 h, 12 h, and 24 h after oral administration.

[7] = Polymorph screening (solids analysed by XRPD); type: physicochemical; conditions: amorphous material as starting material
Procedure: A polymorph screening was performed on EYP001 L-lysine salt crystalline form I (form I as starting material unless otherwise specified).
A number of unique materials with different patterns were produced, including crystalline forms I-IV and an amorphous material. All solids from the screening experiments were analysed by XRPD analysis and the resulting patterns compared to that of the reference. The observed solids and their ways of obtention are described in Table 16.

[8] = Entry 4*: no solvent, 23% RH stress
[9] = Entry 5*: no solvent, 40° C./75% RH stress
[10] = Entry 6*: no solvent, 59% RH stress
[11] = Entry 11*: THF, flash evaporation

NCCCC[C@H](N)C(=O)O.O=C(O)c1cc2c(Cl)c(N3CCN(S(=O)(=O)c4c(Cl)cccc4Cl)CC3)ccc2o1 [EYP001 L-lysine salt amorphous form, L-lysine salt of 4-chloro-5-[4-(2,6-dichlorophenyl)sulfonylpiperazin-1-yl]-1-benzofuran-2-carboxylic acid]
time found stable [1]: at least 19 days | Soluble fraction ([2]; after 0.5 h): 0.029 mg/mL of EYP001 | Soluble fraction ([2]; after 1 h): 0.023 mg/mL of EYP001 | Soluble fraction ([3]; after 0.5 h): 1.12 mg/mL of EYP001 | Soluble fraction ([3]; after 1 h): 1.13 mg/mL of EYP001 | Soluble fraction ([3]; after 2 h): 1.12 mg/mL of EYP001 | Soluble fraction ([3]; after 24 h): 1.11 mg/mL of EYP001 | pH ([3]; after 0.5 h): (pH = 4.9) | pH ([3]; after 1 h): (pH = 4.9) | pH ([3]; after 24 h): (pH = 5.0) | onset temperature of thermal decomposition (TGA) ([4]; heater ramp 10 ° C./min, nitrogen): 241 °C | mass loss before the beginning of thermal decomposition (TGA) ([4]; upon heating): 2.4% | stability at high relative humidity (DVS) ([5]; 25° C.): unstable at high relative humidity | mass loss during preliminary drying phase ([5]; 25° C./0% RH before sorption): 2.6% | water uptake upon sorption (DVS) ([5]; 25° C./40% RH): 3.5 % wt. | water uptake (DVS) ([5]; 25° C./60% RH, listed as EYP001 L-Lysine salt amorphous form): 6.8% | water uptake upon sorption (DVS) ([5]; 25° C./75% RH): 11.5 % wt. | water uptake upon sorption (DVS), after drastic decrease ([5]; 25° C./95% RH): 4 % wt. | maximum hysteresis sorption/desorption ([5]; 25° C., listed as EYP001 L-Lysine salt amorphous form): 10.3% | mass below the initial mass after desorption ([5]; back to 25° C./0% RH after full cycle): about 1.3 % wt. | hygroscopicity (DVS) ([5]; hygroscopic above 2% mass gain at 25° C./60% RH, listed as EYP001 L-Lysine salt amorphous form): hygroscopic | Mean AUClast ([6]; aqueous formulation): 4764.7 ng·h/mL | Mean Cmax ([6]; aqueous formulation): 2130.0 ng/mL | % increase/EYP001 (AUClast) ([6]; versus EYP001 free acid): +41.1% | % increase/EYP001 (Cmax) ([6]; versus EYP001 free acid): +47.4% | Results [7, 8]: solid | XRPD [7, 8]: Amorphous | Results [7, 9]: solid | XRPD [7, 9]: Form I | Results [7, 10]: solid | XRPD [7, 10]: Form I | Results ([7]; Entry 9*: no solvent, milling): solid | XRPD ([7]; Entry 9*: no solvent, milling): Amorphous | Results [7, 11]: solid | XRPD [7, 11]: Amorphous
